From patent publication US20050048539A1, “Methods to monitor molecule conformation and molecule/molecule proximity” (The General Hospital Corporation, priority 2003, published 2005)
“Also recorded” adds a separate entry of the source.

Legend:
Aβ40, Aβ42 and Aβ1-x = assay: Aβ ELISA of conditioned medium of PS70 cells treated with NSAIDs; format: cell-based, human; conditions: 24 hours; for Aβ1-x level (ELISA): high doses
Method: (§1) Cell culture and drug treatment: PS70 cells, CHO cells stably overexpressing wild-type human PS1 and APP 751 (Xia, W. et al., J. Biol. Chem. 272, 7977-7982, 1997), mouse N2a neuroblastoma, or human embryonic kidney (HEK) cells were used in this study. Cells were cultured in OPTI-MEMI with 5% fetal bovine serum at 37° C. with 5% CO2 in a tissue culture incubator. Primary cultured hippocampal-cortical neurons were prepared from embryonic day 16-18 mouse brain as described (Berezovska, O. et al., Brain Res Mol Brain Res 69: 273-280, 1999).
(§2) The NSAIDs (S)-ibuprofen (250 mM, Biomol, Plymouth Meeting, Penn.), (R)-ibuprofen (250 mM, Biomol), and flurbiprofen (250 mM, Calbiochem, San Diego, Calif.) were dissolved in 100% ethanol. […] Cells were plated onto either 12-well plates (for Aβ determinations) or onto 4-chamber slides (FLIM studies) and treated for 24 hours with NSAIDs prior to the analysis. A vehicle control chamber treated with ethanol or DMSO (0.1%) was included in each experiment. Cell toxicity was analyzed for all drugs tested by measuring adenylate kinase levels using Toxi-light reagent (Camdex, New Jersey).
(§3) ELISA, BACE-specific enzymatic activity assay and Western Blots: For Aβ ELISA we used 500 μl of conditioned medium collected 24 hours post-treatment. Formic acid-extractable Aβ in the mouse brain was measured as described (Fukumoto, H.,et al., Am. J. Pathol. 164, 719-725, 2004). The capture antibody was BNT77 and the detection antibody was horseradish peroxidase (HRP)-conjugated BA27 for Aβ40 and HRP-conjugated BC05 for Aβ42 (Asami-Odaka, A. et al., Biochemistry 34: 10272-10278, 1995). We used BAN50 as a capture antibody and HRP-conjugated BNT77 as a detection antibody for Aβ1-x (a gift from Takeda, Japan) (Asami-Odaka, A. et al., Biochemistry 34: 10272-10278, 1995). BACE activity was measured using a sensitive BACE-specific enzymatic activity assay (Fukumoto, H.,et al., Am. J. Pathol. 164, 719-725, 2004).
We treated Chinese hamster ovary (CHO) cells stably transfected with APP and PS1 (PS70 cells) with several NSAIDs at different doses for 24 hours and measured Aβ40 and Aβ42 using ELISA (FIG. 14).

PS1 [1] = target: T1, PS1 (Homo sapiens, UniProt P49768); assay: FLIM assay of PS1 N-/C-termini proximity in primary cultured neurons; format: cell-based, mouse; set-up: expressed in transfected cells; host or cells: primary hippocampal-cortical neurons from embryonic day 16-18 mouse brain
Method: as §1, with “1999). Transfection protocol: Transient transfection in cells was performed using Superfect reagents (Qiagen, Valencia, Calif.) according to manufacturer's instructions. Primary cultured neurons were transfected with wild-type PS1 plasmid using the method of calcium phosphate co-precipitation as described (Berezovska, O. et al., Brain Res Mol Brain Res 69: 273-280, 1999; Chen, C. et al., Biotechniques 6: 632-638, 1987).” for “1999).”

APP and PS1 = target: T2, APP and PS1 (Homo sapiens, UniProt P49768); assay: FLIM assay for PS1-APP proximity after NSAID treatment; format: cell-based; conditions: donor APP-CT-FITC, acceptor loop PS1-Cy3, 24 h, 375 μM S-ibuprofen, 375 μM flurbiprofen, 500 μM aspirin, DMSO vehicle 2127 ± 224
T2 construct: expressed in transfected cells
Method: as §1, §2

Aβ42 and Aβ40 = assay: Brain Aβ ELISA in wtPS1 transgenic mice treated with S-ibuprofen; format: in vivo, mouse; conditions: 3-month-old wtPS1 transgenic mice, 375 ppm in diet, 15 days; P=0.03
Method: as §3
(§4) Ibuprofen treatment of wtPS1 mice: Three-month-old transgenic mice over-expressing wtPS1 were treated with S-ibuprofen (375 ppm in diet, Research Diets, New Brunswick, N.J.) or a control diet for 15 days (6 mice per group). […] At the end of the experimental period animals were sacrificed by CO2 inhalation. The brains were dissected, half of each brain was frozen on dry ice for Aβ ELISA and BACE activity analysis and the other half was fixed in 4% paraformaldehyde for immunohistochemistry. […]

BACE = target: T3, BACE (Mus musculus, UniProt P56818); assay: BACE-specific enzymatic activity assay in brain of treated mice; format: in vivo; conditions: S-ibuprofen 375 ppm in diet vs control diet, 15 days
T3 construct: from tissue; host or cells: frozen brain of wtPS1 transgenic mice
Method: as §3, §4

[2] = Chow consumption and mouse weight during ibuprofen treatment; format: in vivo; conditions: S-ibuprofen 375 ppm in diet vs control diet, 15 days
Method: (§5) Ibuprofen treatment of wtPS1 mice: Three-month-old transgenic mice over-expressing wtPS1 were treated with S-ibuprofen (375 ppm in diet, Research Diets, New Brunswick, N.J.) or a control diet for 15 days (6 mice per group). […] At the end of the experimental period animals were sacrificed by CO2 inhalation. The brains were dissected, half of each brain was frozen on dry ice for Aβ ELISA and BACE activity analysis and the other half was fixed in 4% paraformaldehyde for immunohistochemistry.

PS1 [3] = target: T1, PS1; assay: In vivo FLIM assay of proximity between N- and C-termini of PS1 in brain sections; set-up: expressed in transfected cells; host or cells: primary hippocampal-cortical neurons from embryonic day 16-18 mouse brain; species or system mouse; conditions: mice, 375 ppm in diet, 15 days; control diet 1934±161 psec; P=0.02
Method: as §5
Half of the brain was fixed, sectioned at 35 μm, and immunostained with antibodies against the N- and C-termini of PS1.

[4] = tested on: APP and PS1 (PS1/γ-secretase complex); assay: FLIM assay for PS1 loop-APP C-terminus proximity in CHO cells treated with γ-secretase inhibitors; format: cell-based, Chinese hamster; conditions: WT PS1 CHO cells, donor PS1 loop-FITC, acceptor APP770-CY3, 4 h with DAPT 500 nM or WPE-III-31C 1 μM, non-FRET control 2600 ± 110, untreated 2290 ± 216
Method: Chinese hamster ovary (CHO) cells stably transfected with APP770 and either wild type PS1 (wt PS1) or Aspartate mutant PS1 (D257A PS1) were grown in OPTI-MEM with 5% fetal bovine serum and appropriate antibiotics (Puromycin or Zeocin, respectively, (Berezovska et al., 2000)).
Cells were fixed and immunostained 24 hrs posttransfection as described previously (Jack, C. et al., Brain Res Mol Brain Res 87: 166-174, 2001). We used a polyclonal C8 antibody (Selkoe, D. et al., Proc Natl Acad Sci USA 85: 7341-7345, 1988) to detect the C-terminus of APP. A monoclonal antibody to the loop region of PS1 (Chemicon, Temecula, Calif.) was used to identify the γ-secretase complex. PS1 N-terminal X81 antibody was a gift from D. Selkoe (Brigham and Women's Hospital, Boston, Mass.); PS1 C-terminal antibody was purchased from R&D Systems, Inc., Minneapolis, Minn.). For FRET/FLIM studies we chose Cy3-labeled goat anti-rabbit as the acceptor fluorophore, and FITC-labeled goat anti-mouse as the donor fluorophore.
Fluorescence Lifetime Imaging Microscopy (FLIM) relies on the observation that fluorescence lifetimes (the time of fluorophore emission after brief excitation, measured in picoseconds) are shorter in the presence of a FRET acceptor. […] We used a high-speed Hamamatsu detector and hardware/software from Becker and Hickl (Berlin, Germany) to measure fluorescence lifetimes on a pixel-by-pixel basis. […]
The following controls were used to establish and validate the FLIM assay: (1) As a negative control, FITC lifetime was measured in the absence of the acceptor. […] (2) As a positive control, FITC lifetime was measured in the presence of an acceptor. […] By contrast, the FITC fluorescence lifetime (FLIM image) within the area where the acceptor was photobleached reverts to a longer lifetime (color-coded as blue), identical to the lifetime of FITC in the absence of an acceptor (as in the negative control, FIG. 7A). […]
If there was no interaction, lifetimes on the order of ˜2600 psec were observed. If FRET was detected, a population with a statistically shorter lifetime (<˜2400 psec) was observed.

PS1 [5] = target: T1, PS1; assay: Confocal staining with biotinylated WPE31C as histological reagent (wt PS1 vs D257A PS1 cells); format: cell-based; set-up: expressed in transfected cells; conditions: cells expressing wt PS1
Method: PS1 immunostaining co-localizes with CY3-streptavidin labeled WPE-31C-bi in the cells expressing wt PS1. […] Bar=[…].
We reasoned that an agent that binds to the active site would compete with APP, blocking the APP-PS1 interaction if the first possibility were the case. […] The cells were treated with WPE-31C to examine whether APP would still be associated with the PS1 loop region. […] It has been observed that transition state analogues like WPE31C bind specifically to the heterodimeric form of PS1, and not to the holoprotein prior to cleavage. […] We used a biotinylated form of WPE31C (Esler, W. P. et al., Proc Natl Acad Sci USA 99: 2720-2725, 2002) as a histological reagent. […] Of note, there was less WPE-31C/Cy3 signal in the proximal perinuclear compartment, compared with PS1 immunoreactivity, confirming our observation that some of this PS1 is in a different conformation and is likely not proteolytically active.

T3 sequence (P56818 46-501): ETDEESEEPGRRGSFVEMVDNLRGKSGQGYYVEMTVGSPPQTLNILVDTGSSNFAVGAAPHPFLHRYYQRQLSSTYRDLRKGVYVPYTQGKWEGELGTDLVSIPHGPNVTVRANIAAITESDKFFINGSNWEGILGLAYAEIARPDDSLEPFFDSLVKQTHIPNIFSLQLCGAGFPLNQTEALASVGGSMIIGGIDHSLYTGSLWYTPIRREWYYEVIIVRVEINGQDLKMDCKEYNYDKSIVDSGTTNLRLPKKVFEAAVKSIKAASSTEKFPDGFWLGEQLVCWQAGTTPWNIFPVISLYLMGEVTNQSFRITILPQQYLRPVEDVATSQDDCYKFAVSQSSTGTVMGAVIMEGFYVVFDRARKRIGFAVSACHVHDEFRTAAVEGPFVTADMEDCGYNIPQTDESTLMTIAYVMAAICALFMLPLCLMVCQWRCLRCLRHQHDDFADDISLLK

CC(C(=O)O)c1ccc(-c2ccccc2)c(F)c1 (centres unmarked) [flurbiprofen]
Aβ40 level (ELISA) (Aβ40, Aβ42 and Aβ1-x): reduced
Aβ42 level (ELISA) (Aβ40, Aβ42 and Aβ1-x): marked reduction; also recorded: dose-dependent reduction
Aβ1-x level (ELISA) (Aβ40, Aβ42 and Aβ1-x): did not observe a change

COc1ccc2c(c1)c(CC(=O)O)c(C)n2C(=O)c1ccc(Cl)cc1 [indomethacin]
Aβ42 level (ELISA) (Aβ40, Aβ42 and Aβ1-x): marked reduction; also recorded: dose-dependent reduction
Aβ1-x level (ELISA) (Aβ40, Aβ42 and Aβ1-x): did not observe a change
FITC lifetime (PS1 N- to C-termini distance) (PS1 [1]): significantly increased

CC(C)Cc1ccc([C@H](C)C(=O)O)cc1 [S-ibuprofen, (S)-ibuprofen]
Aβ40 level (ELISA) (Aβ40, Aβ42 and Aβ1-x): reduced
Aβ42 level (ELISA) (Aβ40, Aβ42 and Aβ1-x): marked reduction; also recorded: dose-dependent reduction
Aβ1-x level (ELISA) (Aβ40, Aβ42 and Aβ1-x): did not observe a change
FITC lifetime APP-CT (mean ± SD) (APP and PS1): 2307 ± 107 psec
FITC lifetime APP-CT (mean ± SD) (APP and PS1; listed as ibuprofen): increased FITC lifetime
reduction of Aβ42/Aβ40 ratio in the brain vs control diet (Aβ42 and Aβ40): 12%
BACE activity in brain (BACE): No differences
amount of chow consumed, mouse weight [2]: no differences
FITC lifetime (PS1 N- to C-termini distance) (PS1 [1]): significantly increased
FITC lifetime, brain sections stained for PS1 N- and C-termini (PS1 [3]): 2205±104 psec

CC(C)Cc1ccc([C@@H](C)C(=O)O)cc1 [R-ibuprofen, (R)-ibuprofen]
Aβ42 level (ELISA) (Aβ40, Aβ42 and Aβ1-x): marked reduction; also recorded: dose-dependent reduction

COc1ccc2cc([C@H](C)C(=O)O)ccc2c1 [naproxen]
Aβ40 level (ELISA) (Aβ40, Aβ42 and Aβ1-x): No or small change
Aβ42 level (ELISA) (Aβ40, Aβ42 and Aβ1-x): No or small change
Aβ1-x level (ELISA) (Aβ40, Aβ42 and Aβ1-x): did not observe a change
FITC lifetime (PS1 N- to C-termini distance) (PS1 [1]): not

COC(=O)[C@@H](NC(=O)[C@H](CC(C)C)NC(=O)N(Cc1ccccc1)C[C@@H](O)[C@H](Cc1ccccc1)NC(=O)OC(C)(C)C)C(C)C [WPE-III-31C]
FITC Lifetime (psec) mean ± SD ([4]; listed as WPE31C): 1972 ± 264 (n = 30) psec
FITC Lifetime (psec) mean ± SD ([4]; listed as WPE-31C): tight association between APP and PS1
CY3-streptavidin staining / co-localization with PS1 immunostaining (PS1 [5]): strongly stained

CC(=O)Oc1ccccc1C(=O)O [aspirin]
Aβ40 level (ELISA) (Aβ40, Aβ42 and Aβ1-x): No or small change
Aβ42 level (ELISA) (Aβ40, Aβ42 and Aβ1-x): No or small change
